In patent US6737383B1, “Herbicidal oxadiazolidines” (priority 1999, dated 2004):

What was measured:
[1] = system: bedstraw; test: Test B pre/postemergence bedstraw; assay type: in vivo, Galium aparine
How it was run: (§1)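 Herbicidal effect was estimated by eye on a ten-point control scale after plants spent twelve to sixteen days in a greenhouse following soil or foliar treatment. Foliar sprays targeted plants at one to four leaves; all doses were formulated in a non-phytotoxic solvent with surfactant.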

[2] = system: blackgrass; test: Test B pre/postemergence blackgrass; assay type: in vivo, Alopecurus myosuroides
How it was run: as §1

[3] = system: surinam grass; test: Test B pre/postemergence surinam grass; assay type: in vivo, Brachiaria decumbens
How it was run: as §1

[4] = system: cocklebur; test: Test B pre/postemergence cocklebur; assay type: in vivo, Xanthium strumarium
How it was run: as §1

[5] = system: corn; test: Test B pre/postemergence corn; assay type: in vivo, Zea mays
How it was run: as §1

[6] = system: giant foxtail; test: Test B pre/postemergence giant foxtail; assay type: in vivo, Setaria faberii
How it was run: as §1

[7] = system: morningglory; test: Test B pre/postemergence morningglory; assay type: in vivo, Ipomoea hederacea
How it was run: as §1

[8] = system: pigweed; test: Test B pre/postemergence pigweed; assay type: in vivo, Amaranthus retroflexus; conditions: for Plant response rating, Redroot pigweed: Postemergence
How it was run: as §1

[9] = system: rape; test: Test B pre/postemergence rape; assay type: in vivo, Brassica napus
How it was run: as §1

[10] = system: soybean; test: Test B pre/postemergence soybean; assay type: in vivo, Glycine max; conditions: for Plant response rating, Soybean: Postemergence; for Plant response rating, Soybean / Soybean plant response rating: scale of 0 to 10 where 0 is no effect and 10 is complete control
How it was run: as §1

[11] = system: sugar beet; test: Test B pre/postemergence sugar beet; assay type: in vivo, Beta vulgaris; conditions: for Plant response rating, Sugarbeets: Postemergence
How it was run: as §1

[12] = system: velvetleaf; test: Test B pre/postemergence velvetleaf; assay type: in vivo, Abutilon theophrasti; conditions: for Plant response rating, Velvetleaf: Postemergence
How it was run: as §1

[13] = system: purple nutsedge; test: Test B pre/postemergence purple nutsedge; assay type: in vivo, Cyperus rotundus
How it was run: as §1

[14] = system: smallflower flatsedge; test: Test B flood test smallflower flatsedge; assay type: in vivo, Cyperus difformis
How it was run: (§2)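 Each value is a visual injury score relative to controls, with 10 meaning complete control and 0 no effect. Evaluation took place twelve to sixteen days after the 2-leaf-stage plants were treated and kept in the greenhouse.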

[15] = system: duck salad; test: Test B flood test duck salad; assay type: in vivo, Heteranthera limosa
How it was run: as §2

[16] = system: bamyardgrass; test: Test B flood test barnyardgrass; assay type: in vivo, Echinochloa crus-galli
How it was run: as §2

[17] = Postemergence, Rate 62 g/ha, scale of 0 to 10, 0 is no effect, 10 is complete control
[18] = Postemergence, Rate 500 g/ha, scale of 0 to 10 where 0 is no effect and 10 is complete control
[19] = Preemergence, Rate 62 g/ha, scale 0 to 10 (0 no effect, 10 complete control)
[20] = Preemergence, Rate 125 g/ha, scale of 0 to 10 where 0 is no effect and 10 is complete control
[21] = Preemergence, Rate 500 g/ha, scale of 0 to 10 where 0 is no effect and 10 is complete control
[22] = Rate 250 g/ha, Postemergence, scale of 0 to 10 where 0 is no effect and 10 is complete control
[23] = Postemergence, Rate 125 g/ha, scale of 0 to 10 where 0 is no effect and 10 is complete control
[24] = Rate 125 g/ha, scale of 0 to 10 where 0 is no effect and 10 is complete control
[25] = Rate 500 g/ha, scale of 0 to 10 where 0 is no effect and 10 is complete control
[26] = Rate 250 g/ha, scale of 0 to 10 where 0 is no effect and 10 is complete control
[27] = Rate 62 g/ha, flood test species, Pre-emergence, visual evaluation after twelve to sixteen days
[28] = Rate 125 g/ha, under heading Pre-emergence, flood test species, visual evaluation after twelve to sixteen days
[29] = Rate 250 g/ha, Pre-emergence (flood test species), scale 0 to 10, 0 is no effect, 10 is complete control
[30] = Rate 500 g/ha, Pre-emergence section of Table B, 0 to 10 scale (0 no effect, 10 complete control)

In the case of `CC(C)N(C(=O)n1oc(=O)n(CC2CCC2)c1=O)c1ccccc1` [Compound 580], the “Bedstraw plant response rating” value [1, 17] is reported as 3, the “Plant response rating, Bedstraw” value [1, 18] is reported as 9 and the “Bedstraw plant response rating” value [1, 19] is reported as 0. The “Bedstraw plant response rating” value [1, 20] was 4, the “Bedstraw plant response rating (0 to 10 scale)” value ([1]; Preemergence, Rate 250 g/ha) was 6 and the “Bedstraw plant response rating” value [1, 21] was 6. For the same compound, the “Plant response rating, Bedstraw” value [1, 22] was 0, the “Blackgrass plant response rating” value [2, 17] was 2 and the “Plant response rating, Blackgrass” value [2, 23] was 6. For the same compound, the “Plant response rating, Blackgrass” value [2, 18] was 7, the “Blackgrass plant response rating” value [2, 19] was 0 and the “Blackgrass plant response rating” value [2, 20] was 3. The “Blackgrass plant response rating (0 to 10 scale)” value ([2]; Preemergence, Rate 250 g/ha) was 7, the “Blackgrass plant response rating” value [2, 21] was 7 and the “Plant response rating, Blackgrass” value [2, 22] was 7. For the same compound, the “B. signalgrass plant response rating” value [3, 17] was 0, the “Plant response rating, B. signalgrass” value [3, 23] was 2 and the “Plant response rating, B. signalgrass” value [3, 18] was 8. The “B. signalgrass plant response rating” value [3, 19] was 2, the “B. signalgrass plant response rating” value [3, 20] was 6 and the “B. signalgrass plant response rating (0 to 10 scale, 0 is no effect, 10 is complete control)” value ([3]; Preemergence, Rate 250 g/ha) was 6. For the same compound, the “B. signalgrass plant response rating” value [3, 21] was 9, the “Plant response rating, B. signalgrass” value [3, 22] was 5 and the “Cocklebur plant response rating” value [4, 17] was 3. For the same compound, the “Plant response rating, Cocklebur” value [4, 23] was 3, the “Plant response rating, Cocklebur” value [4, 18] was 6 and the “Cocklebur plant response rating” value [4, 19] was 0. The “Cocklebur plant response rating” value [4, 20] was 0, the “Cocklebur plant response rating (0 to 10 scale)” value ([4]; Preemergence, Rate 250 g/ha) was 0 and the “Cocklebur plant response rating” value [4, 21] was 3. The “Plant response rating, Cocklebur” value [4, 22] was 3, the “Corn plant response rating” value [5, 17] was 0 and the “Plant response rating, Corn” value [5, 23] was 0. The “Plant response rating, Corn” value [5, 18] was 0, the “Corn plant response rating” value [5, 19] was 0 and the “Corn plant response rating” value [5, 20] was 0. The “Corn plant response rating (0 to 10 scale)” value ([5]; Preemergence, Rate 250 g/ha) was 2, the “Corn plant response rating” value [5, 21] was 5 and the “Plant response rating, Corn” value [5, 22] was 0. The “Giant foxtail plant response rating” value [6, 17] was 0, the “Plant response rating, Giant foxtail” value [6, 23] was 6 and the “Plant response rating, Giant foxtail” value [6, 18] was 8. The “Giant foxtail plant response rating” value [6, 19] was 9, the “Giant foxtail plant response rating” value [6, 20] was 9 and the “Giant foxtail plant response rating (0 to 10 scale)” value ([6]; Preemergence, Rate 250 g/ha) was 10. The “Giant foxtail plant response rating” value [6, 21] was 10, the “Plant response rating, Giant foxtail” value [6, 22] was 8 and the “Morningglory plant response rating” value [7, 17] was 7. The “Plant response rating, Morningglory” value [7, 23] was 7, the “Plant response rating, Morningglory” value [7, 18] was 10 and the “Morningglory plant response rating” value [7, 19] was 0. The “Morningglory plant response rating” value [7, 20] was 0, the “Morningglory plant response rating (0 to 10 scale)” value ([7]; Preemergence, Rate 250 g/ha) was 0 and the “Morningglory plant response rating” value [7, 21] was 0. The “Plant response rating, Morningglory” value [7, 22] was 8, the “Plant response rating, Redroot pigweed” value [8, 24] was 5 and the “Plant response rating, Redroot pigweed” value [8, 25] was 9. The “Redroot pigweed plant response rating” value [8, 19] was 9, the “Redroot pigweed plant response rating” value [8, 20] was 10 and the “Redroot pigweed plant response rating (0 to 10 scale)” value ([8]; Preemergence, Rate 250 g/ha) was 10. The “Redroot pigweed plant response rating” value [8, 21] was 10, the “Plant response rating, Redroot pigweed” value [8, 26] was 5 and the “Rape plant response rating” value [9, 17] was 4. The “Plant response rating, Rape” value [9, 23] was 6, the “Plant response rating, Rape” value [9, 18] was 8 and the “Rape plant response rating” value [9, 19] was 0. The “Rape plant response rating” value [9, 20] was 3, the “Rape plant response rating (0 to 10 scale)” value ([9]; Preemergence, Rate 250 g/ha) was 7 and the “Rape plant response rating” value [9, 21] was 8. The “Plant response rating, Rape” value [9, 22] was 7, the “Plant response rating, Soybean” value ([10]; Rate 125 g/ha) was 4 and the “Plant response rating, Soybean” value ([10]; Rate 500 g/ha) was 4. The “Soybean plant response rating” value ([10]; Preemergence, Rate 125 g/ha) was 0, the “Soybean plant response rating (0 to 10 scale)” value ([10]; Preemergence, Rate 250 g/ha) was 0 and the “Soybean plant response rating” value ([10]; Preemergence, Rate 500 g/ha) was 0. The “Plant response rating, Soybean” value ([10]; Rate 250 g/ha) was 4, the “Plant response rating, Sugarbeets” value [11, 24] was 4 and the “Plant response rating, Sugarbeets” value [11, 25] was 6. For the same compound, the “Sugarbeets plant response rating” value [11, 19] was 0, the “Sugarbeets plant response rating” value [11, 20] was 0 and the “Sugarbeets plant response rating (0 to 10 scale)” value ([11]; Preemergence, Rate 250 g/ha) was 4. The “Sugarbeets plant response rating” value [11, 21] was 5, the “Plant response rating, Sugarbeets” value [11, 26] was 5 and the “Plant response rating, Velvetleaf” value [12, 24] was 2. The “Plant response rating, Velvetleaf” value [12, 25] was 3, the “Velvetleaf plant response rating” value [12, 19] was 0 and the “Velvetleaf plant response rating” value [12, 20] was 0. The “Velvetleaf plant response rating (0 to 10 scale)” value ([12]; Preemergence, Rate 250 g/ha) was 2, the “Velvetleaf plant response rating” value [12, 21] was 5 and the “Plant response rating, Velvetleaf” value [12, 26] was 2. For the same compound, the “Nutsedge plant response rating” value [13, 17] was 0, the “Plant response rating, Nutsedge” value [13, 23] was 0 and the “Nutsedge plant response rating” value [13, 19] was 0. The “Nutsedge plant response rating” value [13, 20] was 0, the “Nutsedge plant response rating (0 to 10 scale)” value ([13]; Preemergence, Rate 250 g/ha) was 0 and the “Nutsedge plant response rating” value [13, 21] was 5. The “Plant response rating, S. Flatsedge (0 to 10 scale, 0 is no effect, 10 is complete control)” value [14, 27] was 0, the “S. Flatsedge plant response rating (0 to 10 scale, 0 is no effect, 10 is complete control)” value [14, 28] was 0 and the “S. Flatsedge plant response rating” value [14, 29] was 0. For the same compound, the “S. Flatsedge plant response rating” value [14, 30] was 0, the “Plant response rating, Ducksalad (0 to 10 scale, 0 is no effect, 10 is complete control)” value [15, 27] was 0 and the “Ducksalad plant response rating (0 to 10 scale, 0 is no effect, 10 is complete control)” value [15, 28] was 0. The “Ducksalad plant response rating” value [15, 29] was 0, the “Ducksalad plant response rating” value [15, 30] was 0 and the “Plant response rating, Barnyardgrass (0 to 10 scale, 0 is no effect, 10 is complete control)” value [16, 27] was 0. The “Barnyardgrass plant response rating (0 to 10 scale, 0 is no effect, 10 is complete control)” value [16, 28] was 0, the “Barnyardgrass plant response rating” value [16, 29] was 0 and the “Barnyardgrass plant response rating” value [16, 30] was 0.
